Molecular target: T1, human ferroportin (Homo sapiens, UniProt Q9NP59)
T1 construct: luciferase reporter (read with the Nano-Glo Luciferase Assay System); expressed in transfected cells; host or cells: CHO cells, stably transfected, expression induced with doxycycline
T1 sequence (Q9NP59 1-571): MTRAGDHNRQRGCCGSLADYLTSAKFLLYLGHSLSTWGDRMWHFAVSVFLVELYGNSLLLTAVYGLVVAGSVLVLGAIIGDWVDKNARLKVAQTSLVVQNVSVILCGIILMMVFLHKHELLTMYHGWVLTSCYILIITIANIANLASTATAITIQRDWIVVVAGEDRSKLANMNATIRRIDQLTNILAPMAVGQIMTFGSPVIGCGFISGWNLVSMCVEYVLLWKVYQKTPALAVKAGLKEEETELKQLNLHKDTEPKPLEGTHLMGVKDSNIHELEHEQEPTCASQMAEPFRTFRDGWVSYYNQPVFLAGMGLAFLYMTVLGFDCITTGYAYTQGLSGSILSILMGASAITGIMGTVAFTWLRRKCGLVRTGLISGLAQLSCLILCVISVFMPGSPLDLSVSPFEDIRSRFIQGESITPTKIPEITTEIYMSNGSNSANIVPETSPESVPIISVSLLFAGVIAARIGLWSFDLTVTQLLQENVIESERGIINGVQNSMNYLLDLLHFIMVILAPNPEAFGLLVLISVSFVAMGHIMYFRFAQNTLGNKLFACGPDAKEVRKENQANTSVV
Experiment: Biological in-vitro ferroportin internalization assay (luciferase reporter)
Type: cell-based
Conditions: average pEC50; stably-transfected CHO cell line expressing human ferroportin tagged to a luciferase reporter; 6 h incubation with test compound
Outline: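 Stably transfected CHO cells expressing luciferase-tagged human ferroportin, plated 24 h with ferric ammonium citrate and induced with doxycycline for 24 h. Compounds incubated 6 h, then luciferase activity measured by Nano-Glo; average pEC50 reported.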

SMILES	pEC50
CN(CC(=O)NC(C)(C)C)c1nc(-c2cc(OCC3COC3)ccn2)nc2c1CCC2 [Compound 211, N-tert-butyl-2-[methyl(2-{4-[(oxetan-3-yl)methoxy]pyridin-2-yl}-5H,6H,7H-cyclopenta[d]pyrimidin-4-yl)amino]acetamide]	7.9
CN(CC(=O)NC(C)(C)C)c1nc(-c2cc(O[C@@H]3CCN(CC(F)F)C3)ccn2)nc2c1CCC2 [Compound 491, N-tert-butyl-2-{[2-(4-{[(3R)-1-(2,2-difluoroethyl)pyrrolidin-3-yl]oxy}pyridin-2-yl)-5H,6H,7H-cyclopenta[d]pyrimidin-4-yl](methyl)amino}acetamide]	8.2
COc1ncc(NC(=O)CN(C)c2nc(-c3cn(C)cn3)nc3c2CCC3)cn1 [Compound 186, N-(2-methoxypyrimidin-5-yl)-2-{methyl[2-(1-methyl-1H-imidazol-4-yl)-5H,6H,7H-cyclopenta[d]pyrimidin-4-yl]amino}acetamide]	7
CC(C)[C@@H](C(=O)NC(C)(C)C)N(C)c1nc(-c2ccccn2)nc2c1CCC2 [Compound 115, (2S)—N-tert-butyl-3-methyl-2-{methyl[2-(pyridin-2-yl)-5H,6H,7H-cyclopenta[d]pyrimidin-4-yl]amino}butanamide]	7.1
COc1ccnc(-c2nc3c(c(N4CCCO[C@@H]5CCC[C@@H]54)n2)CCC3)c1 [Compound 54, 2-{4-[(5aS,8aR)-octahydro-2H-cyclopenta[b][1,4]oxazepin-5-yl]-5H,6H,7H-cyclopenta[d]pyrimidin-2-yl}-4-methoxypyridine]	6.9
COc1ccc(NC(=O)CN(C)c2nc(-c3cc(OCCN(C)C)ccn3)nc3c2CCC3)cn1 [Compound 344, 2-[(2-{4-[2-(dimethylamino)ethoxy]pyridin-2-yl}-5H,6H,7H-cyclopenta[d]pyrimidin-4-yl)(methyl)amino]-N-(6-methoxypyridin-3-yl)acetamide]	7.6
COc1ccc(NC(=O)CN(C)c2nc(-c3ccccn3)nc3c2CCC3)cc1 [Compound 75, N-(4-methoxyphenyl)-2-{methyl[2-(pyridin-2-yl)-5H,6H,7H-cyclopenta[d]pyrimidin-4-yl]amino}acetamide]	7.5
CCC(C)(CC)NC(=O)CN(C)c1nc(-c2cc(OCCO)ccn2)nc2c1CCC2 [Compound 392, 2-({2-[4-(2-hydroxyethoxy)pyridin-2-yl]-5H,6H,7H-cyclopenta[d]pyrimidin-4-yl}(methyl)amino)-N-(3-methylpentan-3-yl)acetamide]	8.3
CN(CC(=O)NC1(C(F)(F)F)CC1)c1nc(-c2cc(OCC(C)(C)O)ccn2)nc2c1CCC2 [Compound 337, 2-({2-[4-(2-hydroxy-2-methylpropoxy)pyridin-2-yl]-5H,6H,7H-cyclopenta[d]pyrimidin-4-yl}(methyl)amino)-N-[1-(trifluoromethyl)cyclopropyl]aceta-mide]	7.4
CC(C)NC(=O)[C@H](C)N(C)c1nc(-c2cc(OCCN(C)C)ccn2)nc2c1CCC2 [Compound 434, (2S)-2-[(2-{4-[2-(dimethylamino)ethoxy]pyridin-2-yl}-5H,6H,7H-cyclopenta[d]pyrimidin-4-yl)(methyl)amino]-N-(propan-2-yl)propanamide]	7.4
CN(CC(=O)NC(C)(C)C)c1nc(-c2cc(OCC3(O)CCOCC3)ccn2)nc2c1CCC2 [Compound 405, N-tert-butyl-2-[(2-{4-[(4-hydroxyoxan-4-yl)methoxy]pyridin-2-yl}-5H,6H,7H-cyclopenta[d]pyrimidin-4-yl)(methyl)amino]acetamide]	8.3
Cc1cccc(-c2nc3c(c(N(C)CC(=O)NC(C)(C)C)n2)CCC3)n1 [Compound 59, -tert-butyl-2-{methyl[2-(6-methylpyridin-2-yl)-5H,6H,7H-cyclopenta[d]pyrimidin-4-yl]amino}acetamide]	6.8
CSCC[C@@H](C(=O)NC(C)(C)C)N(C)c1nc(-c2ccccn2)nc2c1CCC2 [Compound 117]	6.9
CN(CC(=O)NC(C)(C)C)c1nc(-c2cc(OCCO)ccn2)nc2c1C(C)(C)CC2 [Compound 361, N-tert-butyl-2-({2-[4-(2-hydroxyethoxy)pyridin-2-yl]-5,5-dimethyl-5H,6H,7H-cyclopenta[d]pyrimidin-4-yl}(methyl)amino)acetamide]	8.1
CN1CC(Oc2ccnc(-c3nc4c(c(N(C)CC(=O)NC(C)(C)C)n3)CCC4)c2)C1 [Compound 416, N-tert-butyl-2-[methyl(2-{4-[(1-methylazetidin-3-yl)oxy]pyridin-2-yl}-5H,6H,7H-cyclopenta[d]pyrimidin-4-yl)amino]acetamide]	8
CN(c1nc(-c2ccccn2)nc2c1CCC2)[C@@H](COC(C)(C)C)C(=O)NC(C)(C)C [Compound 120, (2S)-3-(tert-butoxy)-N-tert-butyl-2-{methyl[2-(pyridin-2-yl)-5H,6H,7H-cyclopenta[d]pyrimidin-4-yl]amino}propanamide]	7.2
CN(CC(=O)Nc1ccc(C(F)(F)F)nc1)c1nc(-c2cc3cn[nH]c3cn2)nc2c1CCC2 [Compound 288, 2-[methyl(2-{1H-pyrazolo[3,4-c]pyridin-5-yl}-5H,6H,7H-cyclopenta[d]pyrimidin-4-yl)amino]-N-[6-(trifluoromethyl)pyridin-3-yl]acetamide]	7.1
CN(CC(=O)NC(C)(C)C)c1nc(-c2cc3c(cn2)OCCO3)nc2c1CCC2 [Compound 122, N-tert-butyl-2-[(2-{2H,3H-[1,4]dioxino[2,3-c]pyridin-7-yl}-5H,6H,7H-cyclopenta[d]pyrimidin-4-yl)(methyl)amino]acetamide]	7.8
COc1ccc(NC(=O)CN(C)c2nc(-c3cc(OC4COC4)ccn3)nc3c2CCC3)cn1 [Compound 253, N-(6-methoxypyridin-3-yl)-2-[methyl({2-[4-(oxetan-3-yloxy)pyridin-2-yl]-5H,6H,7H-cyclopenta[d]pyrimidin-4-yl})amino]acetamide]	7.6
CN(CC(=O)N1CCCCCC1)c1nc(-c2cc(OCCO)ccn2)nc2c1CCC2 [Compound 357, 1-(azepan-1-yl)-2-({2-[4-(2-hydroxyethoxy)pyridin-2-yl]-5H,6H,7H-cyclopenta[d]pyrimidin-4-yl}(methyl)amino)ethan-1-one]	7.7
CN(CC(=O)NC(C)(C)C)c1nc(-c2cc3ncsc3cn2)nc2c1CCC2 [Compound 328, N-tert-butyl-2-[methyl(2-{[1,3]thiazolo[5,4-c]pyridin-6-yl}-5H,6H,7H-cyclopenta[d]pyrimidin-4-yl)amino]acetamide]	6.8
CN(CC(=O)NCc1ccccn1)c1nc(-c2ccccn2)nc2c1CCC2 [Compound 38, 2-{methyl[2-(pyridin-2-yl)-5H,6H,7H-cyclopenta[d]pyrimidin-4-yl]amino}-N-[(pyridin-2-yl)methyl]acetamide]	6.6
CN(CC(=O)NC(C)(C)C)c1nc(-c2cc(CCC(C)(C)O)ccn2)nc2c1CCC2 [Compound 481, N-tert-butyl-2-({2-[4-(3-hydroxy-3-methylbutyl)pyridin-2-yl]-5H,6H,7H-cyclopenta[d]pyrimidin-4-yl}(methyl)amino)acetamide]	7.7
CN(CC(=O)NC(C)(C)C)c1nc(-c2cc(OCCN3CCCC3)ccn2)nc2c1CCC2 [Compound 401, N-tert-butyl-2-[methyl(2-{4-[2-(pyrrolidin-1-yl)ethoxy]pyridin-2-yl}-5H,6H,7H-cyclopenta[d]pyrimidin-4-yl)amino]acetamide]	8.3
CC(C)NC(=O)CN(C)c1nc(-c2cc(OCCN3CCCC3)ccn2)nc2c1CCC2 [Compound 429, 2-[methyl(2-{4-[2-(pyrrolidin-1-yl)ethoxy]pyridin-2-yl}-5H,6H,7H-cyclopenta[d]pyrimidin-4-yl)amino]-N-(propan-2-yl)acetamide]	8
C[C@H](C(=O)NC1CC(F)(F)C1)N(C)c1nc(-c2ccccn2)nc2c1CCC2 [Compound 109, (2R)—N-(3,3-difluorocyclobutyl)-2-{methyl[2-(pyridin-2-yl)-5H,6H,7H-cyclopenta[d]pyrimidin-4-yl]amino}propanamide]	7
Cc1ccc(NC(=O)CN(C)c2nc(-c3cc(OCCO)ccn3)nc3c2CCC3)nn1 [Compound 286, 2-({2-[4-(2-hydroxyethoxy)pyridin-2-yl]-5H,6H,7H-cyclopenta[d]pyrimidin-4-yl}(methyl)amino)-N-(6-methylpyridazin-3-yl)acetamide]	7.5
CN(CC(=O)Nc1ccc(F)nc1)c1nc(-c2ccccn2)nc2c1CCC2 [Compound 127, N-(6-fluoropyridin-3-yl)-2-{methyl[2-(pyridin-2-yl)-5H,6H,7H-cyclopenta[d]pyrimidin-4-yl]amino}acetamide]	7.1
Cc1ccnc(-c2nc3c(c(N(C)CC(=O)NC(C)(C)C)n2)CCCC3)c1 [Compound 42, N-tert-butyl-2-{methyl[2-(4-methylpyridin-2-yl)-5,6,7,8-tetrahydroquinazolin-4-yl]amino}acetamide]	7.3
CN(CCOc1ccccc1)c1nc(-c2ccccn2)nc2c1CCC2 [Compound 87, N-methyl-N-(2-phenoxyethyl)-2-(pyridin-2-yl)-5H,6H,7H-cyclopenta[d]pyrimidin-4-amine]	6.6
